Results taken from patent US20250115654A1, “PHARMACEUTICAL COMPOSITION OF GLP-1 RECEPTOR AND GIP RECEPTOR DUAL AGONIST, AND USE THEREOF” (FUJIAN SHENGDI PHARMACEUTICAL CO., LTD., priority 2021, published 2025).
Marks after values point to notes of the source that are not given here. Numbered stars: 1 amine (or outer) side, 2 acyl side, 3 side chain; on linkers, the order of the positions; unused ones are H or OH. Square brackets hold non-standard residues; d marks the D form. Side chains are listed from the residue outwards. Peptide text beside a SMILES is read from it. * marks the point of attachment. C20 diacid = O=C(O)CCCCCCCCCCCCCCCCCCC(=O)*; γGlu = O=C(O)[C@H](CCC(=O)[*:2])N[*:1]; AEEA = NCCOCCOCC(=O)O; Aib = CC(C)(N)C(=O)O

System: diet-induced-obesity mice
Assay: Body weight of diet-induced-obesity mice, subcutaneous administration once every 3 days
Assay type: in vivo, C57BL/6 mice

## CC[C@H](C)[C@H](NC(=O)[C@H](CCCCN)NC(=O)[C@H](CCC(=O)O)NC(=O)[C@H](CCCCNC(=O)COCCOCCNC(=O)COCCOCCNC(=O)CC[C@H](NC(=O)CCCCCCCCCCCCCCCCCCC(=O)O)C(=O)O)NC(=O)[C@H](Cc1ccc(O)cc1)NC(=O)[C@@H](NC(=O)[C@H](CO)NC(=O)[C@H](Cc1ccc(O)cc1)NC(=O)[C@H](CC(=O)O)NC(=O)[C@H](CO)NC(=O)[C@@H](NC(=O)[C@H](Cc1ccccc1)NC(=O)[C@@H](NC(=O)CNC(=O)[C@H](CCC(=O)O)NC(=O)C(C)(C)NC(=O)[C@@H](N)Cc1ccc(O)cc1)[C@@H](C)O)[C@@H](C)O)[C@@H](C)CC)C(=O)N[C@@H](C)C(=O)N[C@@H](C)C(=O)N[C@@H](CCC(N)=O)C(=O)N[C@@H](CCC(=O)O)C(=O)N[C@@H](Cc1ccccc1)C(=O)N[C@H](C(=O)N[C@@H](CC(N)=O)C(=O)N[C@@H](Cc1c[nH]c2ccccc12)C(=O)N[C@@H](CC(C)C)C(=O)N[C@@H](CC(C)C)C(=O)N[C@@H](C)C(=O)NCC(=O)NCC(=O)N1CCC[C@H]1C(=O)N[C@@H](CO)C(=O)N[C@@H](CO)C(=O)NCC(=O)N[C@@H](C)C(=O)N1CCC[C@H]1C(=O)N1CCC[C@H]1C(=O)N1CCC[C@H]1C(=O)N[C@@H](CO)C(N)=O)C(C)C [Compound 18#] (H-Y[Aib]EGTFTSDYSIYK([AEEA-AEEA-γGlu-C20 diacid])EKIAAQEFVNWLLAGGPSSGAPPPS-NH2)
3 nmol/kg, day 0 (before administration)
  rate of change in body weight: 0%
3 nmol/kg, day 1 after administration
  rate of change in body weight: −5 ± 0.6%
3 nmol/kg, day 2 after administration
  rate of change in body weight: −6.3 ± 1 ^ %
3 nmol/kg, day 3 after administration
  rate of change in body weight: −5.8 ± 1.9%
3 nmol/kg, day 4 after administration
  rate of change in body weight: −9.1 ± 2.1 %
3 nmol/kg, day 5 after administration
  rate of change in body weight: −10.3 ± 3.2 %
3 nmol/kg, day 6 after administration
  rate of change in body weight: −10 ± 4.4 %
3 nmol/kg, day 7 after administration
  rate of change in body weight: −13 ± 5.3 %
3 nmol/kg, day 8 after administration
  rate of change in body weight: −13.9 ± 6.1 %
3 nmol/kg, day 9 after administration
  rate of change in body weight: −13.9 ± 7.4 %
3 nmol/kg, day 10 after administration
  rate of change in body weight: −16.6 ± 7.8 %
3 nmol/kg, day 11 after administration
  rate of change in body weight: −16.4 ± 8.2 %
3 nmol/kg, day 12 after administration
  rate of change in body weight: −15.7 ± 8.6 %
3 nmol/kg, day 13 after administration
  rate of change in body weight: −18.2 ± 8.2 %
3 nmol/kg, day 14 after administration
  rate of change in body weight: −17.1 ± 7.2 %
3 nmol/kg, day 15 after administration
  rate of change in body weight: −15.7 ± 7.4 %
3 nmol/kg, day 16 after administration
  rate of change in body weight: −18.6 ± 7 %
3 nmol/kg, day 17 after administration
  rate of change in body weight: −18.3 ± 7***^ %
3 nmol/kg, day 18 after administration
  rate of change in body weight: −17.9 ± 7.1 %
3 nmol/kg, day 19 after administration
  rate of change in body weight: −20.5 ± 7.5 %
3 nmol/kg, day 20 after administration
  rate of change in body weight: −19.8 ± 7.4 %
3 nmol/kg, day 21 after administration
  rate of change in body weight: −17.8 ± 7.3 %
3 nmol/kg, day 22 after administration
  rate of change in body weight: −19.3 ± 8.2 %
3 nmol/kg, day 23 after administration
  rate of change in body weight: −19.1 ± 7.6 %
3 nmol/kg, day 24 after administration
  rate of change in body weight: −17.3 ± 7.4 %
3 nmol/kg, day 25 after administration
  rate of change in body weight: −19.9 ± 7.6 %
3 nmol/kg, day 26 after administration
  rate of change in body weight: −18.8 ± 8 %
3 nmol/kg, day 27 after administration
  rate of change in body weight: −16.1 ± 7.6 %
3 nmol/kg, day 28 after administration
  rate of change in body weight: −19.2 ± 8***^ %
10 nmol/kg dose group, day 27
  body weight reduced: more than 20.0%
10 nmol/kg, day 0 (before administration)
  rate of change in body weight: 0%
10 nmol/kg, day 1 after administration
  rate of change in body weight: −6.2 ± 1.1%
10 nmol/kg, day 2 after administration
  rate of change in body weight: −8.6 ± 0.9 %
10 nmol/kg, day 3 after administration
  rate of change in body weight: −9.4 ± 1.6 %
10 nmol/kg, day 4 after administration
  rate of change in body weight: −12.7 ± 2.4 %
10 nmol/kg, day 5 after administration
  rate of change in body weight: −14.5 ± 3.3 %
10 nmol/kg, day 6 after administration
  rate of change in body weight: −15 ± 5.3 %
10 nmol/kg, day 7 after administration
  rate of change in body weight: −18.3 ± 6.3 %
10 nmol/kg, day 8 after administration
  rate of change in body weight: −20.1 ± 8***^ %
10 nmol/kg, day 9 after administration
  rate of change in body weight: −20.3 ± 9.3 %
10 nmol/kg, day 10 after administration
  rate of change in body weight: −23.4 ± 9.8 %
10 nmol/kg, day 11 after administration
  rate of change in body weight: −23.9 ± 10.7 %
10 nmol/kg, day 12 after administration
  rate of change in body weight: −23.5 ± 11.4 %
10 nmol/kg, day 13 after administration
  rate of change in body weight: −26.4 ± 11.8 %
10 nmol/kg, day 14 after administration
  rate of change in body weight: −25.1 ± 12.1 %
10 nmol/kg, day 15 after administration
  rate of change in body weight: −23.4 ± 9***^ %
10 nmol/kg, day 16 after administration
  rate of change in body weight: −26.6 ± 9.7 %
10 nmol/kg, day 17 after administration
  rate of change in body weight: −25.7 ± 8.7 %
10 nmol/kg, day 18 after administration
  rate of change in body weight: −24.6 ± 8.2 %
10 nmol/kg, day 19 after administration
  rate of change in body weight: −27.5 ± 7.6 %
10 nmol/kg, day 20 after administration
  rate of change in body weight: −27.3 ± 7.2 %
10 nmol/kg, day 21 after administration
  rate of change in body weight: −24.8 ± 6.7 %
10 nmol/kg, day 22 after administration
  rate of change in body weight: −28.1 ± 7.4 %
10 nmol/kg, day 23 after administration
  rate of change in body weight: −27.1 ± 7***^ %
10 nmol/kg, day 24 after administration
  rate of change in body weight: −26 ± 7.1 %
10 nmol/kg, day 25 after administration
  rate of change in body weight: −28.5 ± 8.8 %
10 nmol/kg, day 26 after administration
  rate of change in body weight: −27.8 ± 8.3 %
10 nmol/kg, day 27 after administration
  rate of change in body weight: −24.8 ± 8.4 %
10 nmol/kg, day 28 after administration
  rate of change in body weight: −28.2 ± 8.3 %
